Reference: the supplement of paper PMC10307832

Assays:
Test in all cases: relative viability (nuclei count vs DMSO), 5 days (fraction); higher = more cells survive
[1] = system: LK-2
How it was run: (§1)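 Relative viability divides the nuclei count in treated wells by that in vehicle wells. Lung cancer cell lines were seeded in 1536-well plates, dosed by pin tool the next day, and fixed and stained after 5 days in one step with final 0.05% Triton X-100, 1% formaldehyde and 1 ug/ml Hoechst. Dosing was a single drug or a fixed anchor-drug dose plus five library-drug doses (not always all listed) in √10 steps, and values are medians of duplicate plates imaged at 4×.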

[2] = system: NCI-H1734
How it was run: as §1

[3] = system: EKVX
How it was run: as §1

[4] = system: COR-L 105
How it was run: as §1

[5] = system: PC-14
How it was run: as §1

[6] = system: COR-L23
How it was run: as §1

[7] = system: HCC-78
How it was run: as §1

[8] = system: NCI-H647
How it was run: as §1

[9] = system: NCI-H1993
How it was run: as §1

[10] = system: HCC-366
How it was run: as §1

[11] = system: SK-MES-1
How it was run: as §1

[12] = system: NCI-H1915
How it was run: as §1

CCNC(=O)c1noc(-c2cc(C(C)C)c(O)cc2O)c1-c1ccc(CN2CCOCC2)cc1 [Luminespib] + N=C(N)NC(=N)NCCc1ccccc1 [Phenformin] (partner 250 µM)
relative viability ([1]; first compound 0.006325 µM): 0.436 | relative viability ([1]; first compound 0.02 µM): 0.252 | relative viability ([1]; first compound 0.06325 µM): 0.0992 | relative viability ([1]; first compound 0.2 µM): 0.141 | relative viability ([2]; first compound 0.002 µM): 0.464 | relative viability ([2]; first compound 0.006325 µM): 0.356 | relative viability ([2]; first compound 0.02 µM): 0.3 | relative viability ([2]; first compound 0.06325 µM): 0.103 | relative viability ([2]; first compound 0.2 µM): 0.116 | relative viability ([3]; first compound 0.002 µM): 0.236 | relative viability ([3]; first compound 0.006325 µM): 0.209 | relative viability ([3]; first compound 0.06325 µM): 0.223 | relative viability ([3]; first compound 0.2 µM): 0.104 | relative viability ([4]; first compound 0.002 µM): 0.474 | relative viability ([4]; first compound 0.006325 µM): 0.402 | relative viability ([4]; first compound 0.02 µM): 0.337 | relative viability ([4]; first compound 0.06325 µM): 0.154 | relative viability ([4]; first compound 0.2 µM): 0.19 | relative viability ([5]; first compound 0.002 µM): 0.618 | relative viability ([5]; first compound 0.006325 µM): 0.393 | relative viability ([5]; first compound 0.02 µM): 0.196 | relative viability ([5]; first compound 0.06325 µM): 0.0634 | relative viability ([5]; first compound 0.2 µM): 0.0788 | relative viability ([6]; first compound 0.002 µM): 0.456 | relative viability ([6]; first compound 0.006325 µM): 0.367 | relative viability ([6]; first compound 0.02 µM): 0.457 | relative viability ([6]; first compound 0.06325 µM): 0.0668 | relative viability ([6]; first compound 0.2 µM): 0.0674 | relative viability ([7]; first compound 0.002 µM): 0.689 | relative viability ([7]; first compound 0.006325 µM): 0.52 | relative viability ([7]; first compound 0.06325 µM): 0.767 | relative viability ([7]; first compound 0.2 µM): 0.257 | relative viability ([8]; first compound 0.002 µM): 0.396 | relative viability ([8]; first compound 0.006325 µM): 0.504 | relative viability ([8]; first compound 0.02 µM): 0.429 | relative viability ([8]; first compound 0.06325 µM): 0.0796 | relative viability ([8]; first compound 0.2 µM): 0.0823 | relative viability ([9]; first compound 0.002 µM): 0.46 | relative viability ([9]; first compound 0.006325 µM): 0.474 | relative viability ([9]; first compound 0.02 µM): 0.476 | relative viability ([9]; first compound 0.06325 µM): 0.394 | relative viability ([9]; first compound 0.2 µM): 0.36 | relative viability ([10]; first compound 0.002 µM): 0.686 | relative viability ([10]; first compound 0.006325 µM): 0.59 | relative viability ([10]; first compound 0.02 µM): 0.697 | relative viability ([10]; first compound 0.06325 µM): 0.0486 | relative viability ([10]; first compound 0.2 µM): 0.0355 | relative viability ([11]; first compound 0.002 µM): 0.642 | relative viability ([11]; first compound 0.006325 µM): 0.623 | relative viability ([11]; first compound 0.02 µM): 0.702 | relative viability ([11]; first compound 0.06325 µM): 0.189 | relative viability ([11]; first compound 0.2 µM): 0.193 | relative viability ([12]; first compound 0.002 µM): 0.361 | relative viability ([12]; first compound 0.006325 µM): 0.352 | relative viability ([12]; first compound 0.02 µM): 0.407 | relative viability ([12]; first compound 0.06325 µM): 0.293 | relative viability ([12]; first compound 0.2 µM): 0.0788
